# Results reported in patent publication US20240383915A1, “OXAZEPINE COMPOUNDS AND USES THEREOF IN THE TREATMENT OF CANCER” (Genentech, Inc., priority 2021, published 2024).
# Columns and labels:
# SW480 cells = assay: SW480 proliferation assay; assay type: cell-based; details: Homo sapiens, SW480, SW480; read-out: SW480 Prolif IC50 (G12V)
# PC-9 cells = assay: PC9 proliferation assay; assay type: cell-based, human; details: Homo sapiens, PC-9, PC9; read-out: PC9 Prolif IC50 (G12V)
# KRas(G12V) = KRas(G12V) (Homo sapiens (Human), UniProt P01116, G12V); assay: KRas(G12V) GDP HTRF (BODIPY-GDP exchange TR-FRET); assay type: biochemical
# Sequence of KRas(G12V) (P01116-2 other isoform, or with tags, fused parts or gaps G12V): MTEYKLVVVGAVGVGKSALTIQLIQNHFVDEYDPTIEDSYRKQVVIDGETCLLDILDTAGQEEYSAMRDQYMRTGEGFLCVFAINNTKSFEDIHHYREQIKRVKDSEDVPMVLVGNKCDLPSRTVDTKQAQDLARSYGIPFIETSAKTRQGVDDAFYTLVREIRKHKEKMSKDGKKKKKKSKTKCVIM
# KRas = KRas (Homo sapiens (Human), UniProt P01116); assay: KRas GDP HTRF (BODIPY-GDP exchange TR-FRET); assay type: biochemical
# Sequence of KRas (P01116-2 other isoform, or with tags, fused parts or gaps): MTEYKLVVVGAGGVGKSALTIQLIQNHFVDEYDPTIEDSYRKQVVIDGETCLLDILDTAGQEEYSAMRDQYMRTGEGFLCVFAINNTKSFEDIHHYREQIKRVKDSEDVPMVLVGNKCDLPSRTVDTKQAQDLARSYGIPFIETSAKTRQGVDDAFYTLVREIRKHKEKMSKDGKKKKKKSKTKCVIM
# How it was run: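 Inhibition of SOS1-mediated exchange of BODIPY-GDP on KRAS G12D, started with 3 nM recombinant human SOS1 and 300 nM BODIPY-GDP and read after 60 min. TR-FRET excitation 337 nm, ratio 520/490 nm ×10,000. IC50 from 4-parameter Hill fit of normalized data.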
SMILES,IC50 (SW480 cells),IC50 (PC-9 cells),IC50 (KRas(G12V)),IC50 (KRas)
"Cc1cc(N)nc(-c2cc3ncnc4c3c(c2Cl)OCCN4C)c1C(F)(F)F [Example 24, 6-(8-chloro-4-methyl-5,6-dihydro-4H-[1,4]oxazepino[5,6,7-de]quinazolin-9-yl)-4-methyl-5-(trifluoromethyl)pyridin-2-amine]",–,20000 nM,4400 nM,30000 nM
"Cc1cc(N)nc(-c2cc3ncnc4c3c(c2Cl)OCCN4Cc2cnc[nH]2)c1C(F)(F)F [Example 30, 6-(4-((1H-imidazol-5-yl)methyl)-8-chloro-5,6-dihydro-4H-[1,4]oxazepino[5,6,7-de]quinazolin-9-yl)-4-methyl-5-(trifluoromethyl)pyridin-2-amine]",–,–,4700 nM,35000 nM
"Cc1cc(N)nc(-c2cc3ncnc4c3c(c2Cl)OCCN4Cc2cc(F)cnc2N)c1C(F)(F)F [Example 31, 6-(4-((2-amino-5-fluoropyridin-3-yl)methyl)-8-chloro-5,6-dihydro-4H-[1,4]oxazepino[5,6,7-de]quinazolin-9-yl)-4-methyl-5-(trifluoromethyl)pyridin-2-amine]",–,–,440 nM,2800 nM
"Cc1cc(N)nc(-c2cc3ncnc4c3c(c2Cl)OCCN4C2CCc3c(N)cncc32)c1C(F)(F)F (centres unmarked) [Example 37, 7-(9-(6-amino-4-methyl-3-(trifluoromethyl)pyridin-2-yl)-8-chloro-5,6-dihydro-4H-[1,4]oxazepino[5,6,7-de]quinazolin-4-yl)-6,7-dihydro-5H-cyclopenta[c]pyridin-4-amine]",–,–,53 nM,270 nM
"Cc1cc(N)nc(-c2cc3ncnc4c3c(c2Cl)OC[C@H](CC#N)N4C)c1C(F)(F)F [Example 43, (S)-2-(9-(6-amino-4-methyl-3-(trifluoromethyl)pyridin-2-yl)-8-chloro-4-methyl-5,6-dihydro-4H-[1,4]oxazepino[5,6,7-de]quinazolin-5-yl)acetonitrile]",–,–,2000 nM,4900 nM
"Cc1cc(N)nc(-c2cc3ncnc4c3c(c2Cl)OCCN4Cc2cccnc2)c1C(F)(F)F [Example 46, 6-(8-chloro-4-(pyridin-3-ylmethyl)-5,6-dihydro-4H-[1,4]oxazepino[5,6,7-de]quinazolin-9-yl)-4-methyl-5-(trifluoromethyl)pyridin-2-amine]",–,–,11000 nM,46000 nM
"Cc1cc(N)nc(-c2cc3ncnc4c3c(c2Cl)OCCN4Cc2cc(Cl)cnc2N)c1C(F)(F)F [Example 52, 6-[13-[(2-amino-5-chloro-3-pyridyl)methyl]-8-chloro-10-oxa-2,4,13-triazatricyclo[7.4.1.05,14]tetradeca-1,3,5(14),6,8-pentaen-7-yl]-4-methyl-5-(trifluoromethyl)pyridin-2-amine]",–,–,2400 nM,9600 nM
"Cc1cc(N)nc(-c2cc3nc(OCC4(N(C)C)COC4)nc4c3c(c2Cl)OCCN4Cc2cccnc2N)c1C(F)(F)F [Example 54, 6-(4-((2-aminopyridin-3-yl)methyl)-8-chloro-2-((3-(dimethylamino)oxetan-3-yl)methoxy)-5,6-dihydro-4H-[1,4]oxazepino[5,6,7-de]quinazolin-9-yl)-4-methyl-5-(trifluoromethyl)pyridin-2-amine]",–,–,41 nM,310 nM
"Cc1cc(N)nc(-c2cc3nc(OCC4(C)CS(=O)(=O)C4)nc4c3c(c2Cl)OCCN4Cc2cccnc2N)c1C(F)(F)F [Example 55, 3-(((9-(6-amino-4-methyl-3-(trifluoromethyl)pyridin-2-yl)-4-((2-aminopyridin-3-yl)methyl)-8-chloro-5,6-dihydro-4H-[1,4]oxazepino[5,6,7-de]quinazolin-2-yl)oxy)methyl)-3-methylthietane 1,1-dioxide]",–,–,19 nM,130 nM
"Cc1cc(N)nc(-c2cc3ncnc4c3c(c2Cl)OCCN4Cc2ccnnc2N)c1C(F)(F)F [Example 56, 4-((9-(6-amino-4-methyl-3-(trifluoromethyl)pyridin-2-yl)-8-chloro-5,6-dihydro-4H-[1,4]oxazepino[5,6,7-de]quinazolin-4-yl)methyl)pyridazin-3-amine]",–,–,22 nM,160 nM
"Cc1cc(N)nc(-c2cc3ncnc4c3c(c2Cl)OCCN4Cc2c(C(F)F)ccnc2N)c1C(F)(F)F [Example 57, 6-(4-((2-amino-4-(difluoromethyl)pyridin-3-yl)methyl)-8-chloro-5,6-dihydro-4H-[1,4]oxazepino[5,6,7-de]quinazolin-9-yl)-4-methyl-5-(trifluoromethyl)pyridin-2-amine]",–,–,270 nM,2000 nM
"CNc1cnc(N)c([C@@H](C)N2CCOc3c(Cl)c(-c4nc(N)cc(C)c4C(F)(F)F)cc4ncnc2c34)c1 [Example 58, (R)-3-(1-(9-(6-amino-4-methyl-3-(trifluoromethyl)pyridin-2-yl)-8-chloro-5,6-dihydro-4H-[1,4]oxazepino[5,6,7-de]quinazolin-4-yl)ethyl)-N5-methylpyridine-2,5-diamine]",–,–,18 nM,34 nM
"Cc1cc(N)nc(-c2c(Cl)c3c4c(nc(OC(C)[C@@H]5CC(F)(F)CN5C)nc4c2F)N([C@H](C)c2cccnc2N)CCO3)c1C(F)(F)F (stereo partly drawn) [Example 71, 6-((R)-4-((R)-1-(2-aminopyridin-3-yl)ethyl)-8-chloro-2-((S)-1-((S)-4,4-difluoro-1-methylpyrrolidin-2-yl)ethoxy)-10-fluoro-5,6-dihydro-4H-[1,4]oxazepino[5,6,7-de]quinazolin-9-yl)-4-methyl-5-(trifluoromethyl)pyridin-2-amine]",–,–,0.53 nM,6.61 nM
"Cc1cc(N)nc(-c2c(Cl)c3c4c(nc(OCCN5C6CCC5CN(C)C6)nc4c2F)N([C@H](C)c2cccnc2N)CCO3)c1C(F)(F)F [Example 94, 6-((9R)-4-((R)-1-(2-aminopyridin-3-yl)ethyl)-8-chloro-10-fluoro-2-(2-(3-methyl-3,8-diazabicyclo[3.2.1]octan-8-yl)ethoxy)-5,6-dihydro-4H-[1,4]oxazepino[5,6,7-de]quinazolin-9-yl)-4-methyl-5-(trifluoromethyl)pyridin-2-amine]",–,–,0.07 nM,0.175 nM
"Cc1cc(N)nc(-c2c(Cl)c3c4c(nc(OC[C@@]56CCCN5C[C@H](F)C6)nc4c2F)N([C@H](C)c2cc(Cl)cnc2N)CCO3)c1C(F)(F)F [Example 131, 6-(4-((R)-1-(2-amino-5-chloropyridin-3-yl)ethyl)-8-chloro-10-fluoro-2-(((2R,7aS)-2-fluorotetrahydro-1H-pyrrolizin-7a(5H)-yl)methoxy)-5,6-dihydro-4H-[1,4]oxazepino[5,6,7-de]quinazolin-9-yl)-4-methyl-5-(trifluoromethyl)pyridin-2-amine]",–,–,0.14 nM,0.253 nM

# More lines, now with the values ahead:
IC50 (SW480 cells),IC50 (PC-9 cells),IC50 (KRas(G12V)),IC50 (KRas),SMILES
98 nM,11000 nM,–,–,"COC(C)(C)COc1nc2c3c(c(Cl)c(-c4nc(N)cc(C)c4C(F)(F)F)c(F)c3n1)OCCN2[C@H](C)c1cccnc1N (atropisomer, axis not shown) [Example 110a, 6-((R)-4-((R)-1-(2-aminopyridin-3-yl)ethyl)-8-chloro-10-fluoro-2-(2-methoxy-2-methylpropoxy)-5,6-dihydro-4H-[1,4]oxazepino[5,6,7-de]quinazolin-9-yl)-4-methyl-5-(trifluoromethyl)pyridin-2-amine]"
1.1 nM,–,0.07 nM,0.0849 nM,"Cc1cc(N)nc(-c2c(Cl)c3c4c(nc(OC[C@H]5CC[C@@H]6CO[C@H](C)CN56)nc4c2F)N([C@H](C)c2cccnc2N)CCO3)c1C(F)(F)F (atropisomer, axis not shown; (aR)) [Example 93d, 6-((R)-4-((R)-1-(2-aminopyridin-3-yl)ethyl)-8-chloro-10-fluoro-2-(((3R,6R,8aR)-3-methylhexahydro-1H-pyrrolo[2,1-c][1,4]oxazin-6-yl)methoxy)-5,6-dihydro-4H-[1,4]oxazepino[5,6,7-de]quinazolin-9-yl)-4-methyl-5-(trifluoromethyl)pyridin-2-amine]"
1.9 nM,–,0.09 nM,0.102 nM,"Cc1c(F)c(N)cc(-c2c(Cl)c3c4c(nc(OC[C@@]56CCCN5C[C@H](F)C6)nc4c2F)N([C@H](C)c2cccnc2N)CCO3)c1C(F)(F)F (atropisomer, axis not shown; (aS)) [Example 76a, 3-((R)-1-(9-((S)-5-amino-4-fluoro-3-methyl-2-(trifluoromethyl)phenyl)-8-chloro-10-fluoro-2-(((2R,7aS)-2-fluorotetrahydro-1H-pyrrolizin-7a(5H)-yl)methoxy)-5,6-dihydro-4H-[1,4]oxazepino[5,6,7-de]quinazolin-4-yl)ethyl)pyridin-2-amine]"
12 nM,–,0.15 nM,0.447 nM,"Cc1cc(N)nc(-c2c(Cl)c3c4c(nc(OC[C@@H]5CC[C@H]6COCCN65)nc4c2F)N([C@H](C)c2nccnc2N)CCO3)c1C(F)(F)F (atropisomer, axis not shown; (aS)) [Example 104a, 3-((R)-1-((R)-9-(6-amino-4-methyl-3-(trifluoromethyl)pyridin-2-yl)-8-chloro-10-fluoro-2-(((6S,8aS)-hexahydro-1H-pyrrolo[2,1-c][1,4]oxazin-6-yl)methoxy)-5,6-dihydro-4H-[1,4]oxazepino[5,6,7-de]quinazolin-4-yl)ethyl)pyrazin-2-amine]"
–,–,0.1 nM,0.125 nM,"Cc1cc(N)nc(-c2c(Cl)c3c4c(nc(OCC56C[C@H](F)CN5C[C@H](F)C6)nc4c2F)N([C@H](C)c2cccnc2N)CCO3)c1C(F)(F)F (stereo partly drawn) [Example 98b, 6-((9R)-4-((R)-1-(2-aminopyridin-3-yl)ethyl)-8-chloro-2-(((2R,6S)-2,6-difluorotetrahydro-1H-pyrrolizin-7a(5H)-yl)methoxy)-10-fluoro-5,6-dihydro-4H-[1,4]oxazepino[5,6,7-de]quinazolin-9-yl)-4-methyl-5-(trifluoromethyl)pyridin-2-amine]"
